Laboratory results reported in PMC5078989, “Targeted inhibition of the COP9 signalosome for treatment of cancer” (Nature Communications, 2016).

Experiments:
[1] = target: T1, human MMP9 (Homo sapiens, UniProt P14780); experiment: Selectivity assay MMP9; format: biochemical
T1 construct: human MMP9 (Uniprot P14780), amino acids 1–707; made in house; host or cells: stably transfected 293 cells
Procedure: (§1) All biochemical assays were performed at room temperature in 384-well plates in a total volume of 25.25 μl per well. Test compounds were dissolved in 90% (v/v) DMSO/water. For the assays, 250 nl of compound solution was added per well, followed by addition of 12.5 μl protease solution. After 70 min of pre-incubation at room temperature, the reactions were started by addition of 12.5 μl substrate solution and followed either by measuring fluorescence intensity (rhodamine 110-based substrates) or by fluorescence lifetime (PT14-based substrates). The effect of compound on enzymatic activity was obtained from the linear part of the progress curves and determined after 1 h (t=60 min). The final compound concentrations ranged from 100 μM to 1 nM.
(§2) Matrix metalloproteinases. Human MMP1 (Uniprot P03956), amino acids 1–469, expressed in and purified from stable transfected C127 cells; human MMP2 (Uniprot P08253), amino acids 1–660, expressed in and purified from insect cells (baculovirus expression system); human MMP8 (Uniprot P22894), amino acids 100–262, expressed in and purified from E. coli; human MMP9 (Uniprot P14780), amino acids 1–707, expressed in and purified from stable transfected 293 cells; human MMP12 (Uniprot P39900), amino acids 101–268, expressed in and purified from E. coli; human MMP13 (Uniprot P45452), amino acids 103–274, expressed in and purified from E. coli; human MMP14 (Uniprot P50281), amino acids 112–284, expressed in and purified from E. coli; human ADAM17 (Uniprot P78536), amino acids 1–670, expressed in and purified from insect cells (baculovirus expression system); substrate: Ac-C(PT14)-[…]-NH2 purchased from Biosyntan (product number 8069); enzyme concentrations: 3 nM (MMP1), 1 nM (MMP2), 3 nM (MMP8), 0.1 nM (MMP9), 0.5 nM (MMP12), 0.13 nM (MMP13), 0.005 nM (MMP14), 30 nM (ADAM17); substrate concentration: 0.8 μM; assay buffer: 100 mM Tris, pH 7.4, 100 mM NaCl, 10 mM CaCl2, 10 μM ZnCl2, 0.075% (v/v) Brij35.

[2] = target: CYP3A4 (Homo sapiens, UniProt P08684); experiment: CYP3A4 inhibition; format: in vitro ADME
From the text: Table 2 CYP3A4 inhibition and key pharmacokinetic parameters in mice of CSN5 inhibitors. | column: CSN5i-2; CSN5i-3

[3] = target: T2, human ADAM17 (Homo sapiens, UniProt P78536); experiment: Selectivity assay ADAM17; format: biochemical
T2 construct: human ADAM17 (Uniprot P78536), amino acids 1–670; made in house; host or cells: insect cells (baculovirus)
Procedure: as §1, §2

[4] = target: T3, human MMP2 (Homo sapiens, UniProt P08253); experiment: Selectivity assay MMP2; format: biochemical
T3 construct: human MMP2 (Uniprot P08253), amino acids 1–660; made in house; host or cells: insect cells (baculovirus)
T3 sequence (P08253 30-660): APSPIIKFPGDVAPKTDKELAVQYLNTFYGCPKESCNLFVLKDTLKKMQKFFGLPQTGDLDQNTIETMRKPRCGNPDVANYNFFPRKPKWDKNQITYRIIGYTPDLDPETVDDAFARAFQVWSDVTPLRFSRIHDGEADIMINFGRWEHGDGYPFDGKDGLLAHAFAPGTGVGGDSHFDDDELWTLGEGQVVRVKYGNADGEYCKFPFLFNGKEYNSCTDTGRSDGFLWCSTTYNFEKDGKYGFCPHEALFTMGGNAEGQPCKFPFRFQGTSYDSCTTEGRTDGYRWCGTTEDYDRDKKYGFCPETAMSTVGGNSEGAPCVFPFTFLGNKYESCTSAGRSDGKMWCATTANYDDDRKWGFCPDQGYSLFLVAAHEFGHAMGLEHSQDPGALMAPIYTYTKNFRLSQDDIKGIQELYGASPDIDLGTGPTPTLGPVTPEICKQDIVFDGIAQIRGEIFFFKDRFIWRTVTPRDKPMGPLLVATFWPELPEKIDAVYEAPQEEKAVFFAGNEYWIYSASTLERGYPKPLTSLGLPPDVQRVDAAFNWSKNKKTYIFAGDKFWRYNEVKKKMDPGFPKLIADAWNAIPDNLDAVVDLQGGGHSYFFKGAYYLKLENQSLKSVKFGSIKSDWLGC
Procedure: as §1, §2

[5] = target: T4, human MMP12 (Homo sapiens, UniProt P39900); experiment: Selectivity assay MMP12; format: biochemical
T4 construct: human MMP12 (Uniprot P39900), amino acids 101–268; made in house; host or cells: E. coli
Procedure: as §1, §2

[6] = Pharmacokinetics in mice (single i.v. and oral dose); conditions: mouse, in vivo, mice (n=3), single i.v. 1 mg per kg and single oral 3 mg per kg dose; for clearance: read-out: Cl (clearance); for bioavailability: read-out: F (absolute bioavailability); for half-life: read-out: t1/2 (half-life)
[7] = target: T5, Human AMSHLP (Homo sapiens, UniProt Q96FJ0); experiment: Selectivity assay AMSHLP (ubiquitin-rhodamine110-glycine substrate); format: biochemical; conditions: JAMM domain protease
T5 construct: made in house; host or cells: E. coli
T5 sequence (Q96FJ0 1-436): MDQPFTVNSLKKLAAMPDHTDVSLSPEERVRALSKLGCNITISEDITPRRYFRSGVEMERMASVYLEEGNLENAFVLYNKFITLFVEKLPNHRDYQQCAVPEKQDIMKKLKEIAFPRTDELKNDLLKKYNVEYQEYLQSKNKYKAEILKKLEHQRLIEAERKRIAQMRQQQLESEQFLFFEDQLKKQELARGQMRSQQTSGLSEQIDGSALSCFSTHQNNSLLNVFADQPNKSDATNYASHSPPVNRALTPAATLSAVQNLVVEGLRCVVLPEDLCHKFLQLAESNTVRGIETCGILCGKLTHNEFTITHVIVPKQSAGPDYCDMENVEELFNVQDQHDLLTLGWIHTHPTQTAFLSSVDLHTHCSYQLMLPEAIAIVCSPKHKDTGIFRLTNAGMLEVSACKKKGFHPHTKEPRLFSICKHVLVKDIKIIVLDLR
Procedure: as §1
Human AMSHLP. Enzyme was expressed in and purified from E. coli; substrate: ubiquitin-rhodamine110-glycine was purchased from emp Biotech GmbH (Berlin, Germany; product number AS 09/12-A4); enzyme concentration: 4 nM; substrate concentration: 200 nM; assay buffer: 100 mM Tris/HCl at pH 7.5, 10 mM CaCl2, 100 mM NaCl, 10 μM ZnCl2, 0.005% (v/v) BRIJ 35 and 5 mM dithioerythritol (DTE).

[8] = target: T6, human MMP8 (Homo sapiens, UniProt P22894); experiment: Selectivity assay MMP8; format: biochemical
T6 construct: human MMP8 (Uniprot P22894), amino acids 100–262; made in house; host or cells: E. coli
Procedure: as §1, §2

T4 sequence (P39900 101-268): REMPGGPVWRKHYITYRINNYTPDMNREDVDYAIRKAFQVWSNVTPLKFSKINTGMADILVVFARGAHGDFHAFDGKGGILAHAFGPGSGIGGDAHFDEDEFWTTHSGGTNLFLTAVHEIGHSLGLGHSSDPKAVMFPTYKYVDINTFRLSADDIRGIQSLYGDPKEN
T6 sequence (P22894 100-262): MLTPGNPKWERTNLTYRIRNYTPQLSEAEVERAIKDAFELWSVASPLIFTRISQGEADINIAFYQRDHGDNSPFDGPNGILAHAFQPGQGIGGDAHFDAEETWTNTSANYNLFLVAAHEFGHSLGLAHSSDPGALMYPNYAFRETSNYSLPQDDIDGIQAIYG
T1 sequence (P14780 20-707): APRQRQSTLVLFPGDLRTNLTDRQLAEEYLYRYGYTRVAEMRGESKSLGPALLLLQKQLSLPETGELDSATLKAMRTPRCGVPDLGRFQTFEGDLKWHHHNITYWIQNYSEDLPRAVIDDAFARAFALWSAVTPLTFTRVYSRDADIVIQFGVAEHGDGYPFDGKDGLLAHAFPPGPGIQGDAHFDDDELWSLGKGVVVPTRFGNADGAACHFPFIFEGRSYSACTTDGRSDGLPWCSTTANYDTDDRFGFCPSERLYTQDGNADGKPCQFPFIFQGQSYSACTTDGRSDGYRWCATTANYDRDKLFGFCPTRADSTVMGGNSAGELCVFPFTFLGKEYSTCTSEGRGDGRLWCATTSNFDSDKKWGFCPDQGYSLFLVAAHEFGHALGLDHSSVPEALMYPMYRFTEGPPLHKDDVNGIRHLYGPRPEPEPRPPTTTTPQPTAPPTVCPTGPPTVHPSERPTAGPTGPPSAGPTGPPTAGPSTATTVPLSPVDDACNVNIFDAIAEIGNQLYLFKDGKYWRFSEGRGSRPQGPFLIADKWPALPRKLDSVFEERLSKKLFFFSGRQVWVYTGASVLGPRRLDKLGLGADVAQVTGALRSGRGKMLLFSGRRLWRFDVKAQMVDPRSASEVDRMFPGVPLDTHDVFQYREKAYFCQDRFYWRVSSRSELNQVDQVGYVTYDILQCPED
T2 sequence (P78536 18-670): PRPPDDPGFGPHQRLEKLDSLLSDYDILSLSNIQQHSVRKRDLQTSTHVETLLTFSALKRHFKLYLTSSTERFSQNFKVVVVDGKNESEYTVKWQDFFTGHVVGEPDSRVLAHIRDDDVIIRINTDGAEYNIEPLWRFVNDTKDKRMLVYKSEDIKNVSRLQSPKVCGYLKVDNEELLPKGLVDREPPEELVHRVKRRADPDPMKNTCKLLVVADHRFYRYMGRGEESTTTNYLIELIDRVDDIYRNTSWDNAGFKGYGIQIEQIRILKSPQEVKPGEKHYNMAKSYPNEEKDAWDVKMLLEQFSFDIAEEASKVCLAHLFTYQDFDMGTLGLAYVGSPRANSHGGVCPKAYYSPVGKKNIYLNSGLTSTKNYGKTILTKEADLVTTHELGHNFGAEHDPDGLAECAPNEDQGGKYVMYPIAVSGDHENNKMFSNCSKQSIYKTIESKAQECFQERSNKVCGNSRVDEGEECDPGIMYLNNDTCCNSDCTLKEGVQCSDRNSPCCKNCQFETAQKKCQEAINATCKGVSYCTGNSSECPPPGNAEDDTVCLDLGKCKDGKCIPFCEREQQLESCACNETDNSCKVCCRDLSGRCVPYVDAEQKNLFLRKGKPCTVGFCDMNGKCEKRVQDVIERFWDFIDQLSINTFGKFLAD
Chain of CYP3A4 (P08684 whole entry, species assumed): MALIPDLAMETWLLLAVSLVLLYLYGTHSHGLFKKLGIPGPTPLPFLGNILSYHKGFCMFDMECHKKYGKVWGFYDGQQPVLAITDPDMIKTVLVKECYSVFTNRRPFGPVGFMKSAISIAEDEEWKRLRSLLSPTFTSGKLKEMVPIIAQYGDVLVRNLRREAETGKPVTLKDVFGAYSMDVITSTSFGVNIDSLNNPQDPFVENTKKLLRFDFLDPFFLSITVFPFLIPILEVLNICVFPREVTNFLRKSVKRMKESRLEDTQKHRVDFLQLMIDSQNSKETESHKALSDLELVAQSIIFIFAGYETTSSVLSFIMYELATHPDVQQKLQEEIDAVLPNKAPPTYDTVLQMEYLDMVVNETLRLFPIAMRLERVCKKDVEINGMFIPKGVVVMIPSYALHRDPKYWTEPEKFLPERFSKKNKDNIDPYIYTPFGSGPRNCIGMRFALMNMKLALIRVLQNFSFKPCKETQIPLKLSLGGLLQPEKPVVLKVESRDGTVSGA

IC50 [1] [µM]	IC50 [3] [µM]	IC50 [4] [µM]	IC50 [5] [µM]	IC50 [7] [µM]	IC50 [8] [µM]	Structure (SMILES)	IC50 [2] [µM]	clearance [6] [mL/min/kg]	bioavailability [6] [%]	half-life [6] [h]
3.8 ± 0.4	> 100	89 ± 3	> 100	> 100	59 ± 8	COCc1ccccc1NCc1ccc([C@H]2[C@@H](O)CCCc3cncn32)c(-c2ccccc2Cl)c1 [CSN5i-2, (5S,6S)-5-(2′-chloro-5-(((2-(methoxymethyl)phenyl)amino)methyl)-[1,1′-biphenyl]-2-yl)-6,7,8,9-tetrahydro-5H-imidazo[1,5-a]azepin-6-ol]	< 0.5	82 ± 25	< 1	0.6 ± 0.0167
3.2 ± 0.2	> 100	≥ 90	> 100	> 100	48 ± 8	COCc1ccccc1NCc1ccc([C@@H]2[C@H](O)CCCc3cncn32)c(-c2ccccc2Cl)c1 [CSN5i-2e, (5R,6R)-5-(2′-chloro-5-(((2-(methoxymethyl)phenyl)amino)methyl)-[1,1′-biphenyl]-2-yl)-6,7,8,9-tetrahydro-5H-imidazo[1,5-a]azepin-6-ol]				

Structure (SMILES)	IC50 [1] [µM]	IC50 [3] [µM]	IC50 [4] [µM]	IC50 [5] [µM]	IC50 [7] [µM]	IC50 [8] [µM]	IC50 [2] [µM]	clearance [6] [mL/min/kg]	bioavailability [6] [%]	half-life [6] [h]
CC(C)n1nc(C(F)F)cc1C(=O)Nc1ccc([C@H]2[C@@H](O)CCCc3cncn32)c(-c2ccccc2)c1 [CSN5i-3, 3-(Difluoromethyl)-N-(6-((5S,6S)-6-hydroxy-6,7,8,9-tetrahydro-5H-imidazo[1,5-a]azepin-5-yl)-[1,1′-biphenyl]-3-yl)-1-isopropyl-1H-pyrazole-5-carboxamide]	7.4 ± 2	> 100	> 100	> 100	> 100	14 ± 0.1	6.8 ± 1.8	36 ± 3	33 ± 2	2.5 ± 0.3
